Measurements as given in patent publication US10106504B2, “Pyridin-3-yl acetic acid derivatives as inhibitors of human immunodeficiency virus replication” (priority 2015, dated 2018).
pEC50: −log10 of the molar value.

System: NL-RLuc virus
Experiment: Inhibition of HIV replication (NL-RLuc virus, luciferase readout in MT-2 cells)
Type: cell-based
Conditions: Human immunodeficiency virus 1, MT2, 120 h, read-out: Activity
Procedure, shortened: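 MT-2 cells were infected with NL-RLuc (Renilla luciferase in place of nef) in the presence of serial compound dilutions, in RPMI 1640 with 10% heat-inactivated FBS. After 5 days, luciferase was measured. EC50 came from the median effect equation using at least 2 experiments.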

**Q.** How did the pEC50 turn out when Cc1nc(C)c([C@H](OC(C)(C)C)C(=O)O)c(-c2ccc3c4c(ccnc24)CCO3)c1-c1ccc(OCCc2ccc(F)cc2)cc1 [Example 43, (2S)-2-(tert-Butoxy)-2-(4-(2,3-dihydropyrano[4,3,2-de]quinolin-7-yl)-5-(4-(4-fluorophenethoxy)phenyl)-2,6-dimethylpyridin-3-yl)acetic Acid] was run?
**A.** The pEC50 was 6.00 to 7.00.
